Laboratory results reported in article PMC9147192, “Small Molecule Arranged Thermal Proximity Coaggregation (smarTPCA)—A Novel Approach to Characterize Protein–Protein Interactions in Living Cells by Similar Isothermal Dose–Responses” (International Journal of Molecular Sciences, 2022).

Tests used:
[1] = target: T1, NOP2 (Homo sapiens, UniProt P46087); test: TPP-CCR in living HL-60 cells; type: cell-based
T1 construct: dose–responses (mean over replicates), derived from TPP-CCR experiments in living cells; endogenous in cells; host or cells: HL-60 cells (ATCC No. CCL-240)
T1 sequence (P46087 1-812): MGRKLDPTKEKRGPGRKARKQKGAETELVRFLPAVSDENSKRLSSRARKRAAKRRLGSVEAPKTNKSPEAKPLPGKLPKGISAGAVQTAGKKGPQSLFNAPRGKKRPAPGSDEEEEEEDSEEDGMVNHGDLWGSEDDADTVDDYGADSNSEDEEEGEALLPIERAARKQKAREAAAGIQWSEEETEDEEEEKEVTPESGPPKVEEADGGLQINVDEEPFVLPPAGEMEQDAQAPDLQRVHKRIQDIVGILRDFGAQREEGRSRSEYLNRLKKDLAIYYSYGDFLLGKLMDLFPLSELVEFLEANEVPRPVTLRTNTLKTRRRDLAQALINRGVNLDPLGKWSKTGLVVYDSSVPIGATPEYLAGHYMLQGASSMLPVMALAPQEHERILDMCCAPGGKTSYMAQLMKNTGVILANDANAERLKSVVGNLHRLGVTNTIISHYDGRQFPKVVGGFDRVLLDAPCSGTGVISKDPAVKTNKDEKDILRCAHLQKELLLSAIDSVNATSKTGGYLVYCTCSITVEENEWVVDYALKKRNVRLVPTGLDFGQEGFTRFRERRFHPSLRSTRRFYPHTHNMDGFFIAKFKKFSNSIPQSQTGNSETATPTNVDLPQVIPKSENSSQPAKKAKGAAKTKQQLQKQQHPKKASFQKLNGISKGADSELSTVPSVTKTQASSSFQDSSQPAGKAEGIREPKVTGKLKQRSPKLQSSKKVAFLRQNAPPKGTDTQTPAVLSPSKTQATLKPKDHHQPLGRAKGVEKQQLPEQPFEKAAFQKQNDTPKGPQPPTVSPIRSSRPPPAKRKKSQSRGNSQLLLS
Source text: (§1) Therefore, we performed TPP with compound concentration range (TPP-CCR) experiments according to published procedures. In brief, after preparing tryptic peptides from the non-denatured protein fractions (used for immunoblotting in the previous sections) applying the SP3 method, the peptides were labeled using TMT10plex, coding for inhibitor concentration, and the samples belonging to a TMT set were combined, offline high-pH fractionated, and analyzed by MS.
(§2) HL-60 cells were expanded as described above for CETSA and TPP-TR to 1.25 million cells per milliliter. […] A number of 2.5 million cells in 2 mL of medium were added to each tube and incubated (1 h, 37 °C). After centrifugation (300 rcf, 3 min, r.t.) and removing all of the supernating culture medium, the cells were washed once with 2 mL and once with 0.5 mL PBS (r.t.) by gently resuspending the cells, followed by centrifugation (300 rcf, 3 min, r.t.) and the complete removal of the supernatants.
(§3) After transferring the cells from the 2 mL Eppendorf tubes into correspondingly labeled PCR tubes (tube strips) using 100 µL of ice-cold PBS supplemented with protease inhibitors for resuspending the cells, the samples were further processed as described above for CETSA and TPP-TR, however, by applying a single treatment temperature of 51 °C.
(§4) For each sample set comprising ten compound concentration range samples, a same volume of the cell extracts containing the fraction of soluble, non-denatured proteins, corresponding to an average of 5 µg total protein, was used for further analysis. The calculated volume was respectively transferred into PCR tubes of a tube strip and supplemented with SDS sample buffer without DTT and bromophenol blue (final concentrations: 7.5% glycerol, 3% SDS, 37.5 mM Tris/HCl pH 7.0) and ddH2O to a final volume of 10 µL, respectively. Reduction and alkylation were performed by addition of 2.5 µL 100 mM dithiothreitol (DTT; incubation: 20 min, 56 °C, 1000 rpm in an Eppendorf ThermoMixer C, covering the tubes with aluminum foil to minimize condensation in the lids) and 3.33 µL 300 mM iodoacetamide (IAA; incubation: 15 min, r.t., in the dark without shaking), as well as 2.5 µL 100 mM DTT (incubation: 15 min, r.t., without shaking; quenching of excess of IAA). […] The beads were collected and washed (3× 200 µL 80% ethanol p.a. in HPLC-MS grade water, 1 × 200 µL acetonitrile (ACN; HPLC gradient grade)) using a device for handling of magnetic particles [patent US20100200405A1]. The ACN of the last washing step was completely removed by aspiration without letting the beads dry out.
(§5) Tryptic digest was performed on-bead by resuspending (use of an ultrasound bath may be required) the beads in 20 µL 50 mM TEAB in HPLC-MS grade water containing 0.1 µg Trypsin/Lys-C mix and 16.5 h incubation at 37 °C and 1000 rpm (Eppendorf ThermoMixer C, covering the tubes with aluminum foil to minimize condensation in the lids). Tryptic fragmentation of proteins was optimized by addition of another 0.1 µg of Trypsin/Lys-C mix in 2 µL 50 mM TEAB and 4 h incubation at 37 °C and 1000 rpm. After centrifugation for about 1 min in a table top centrifuge and magnetic concentration and retention of the beads at the inner tube wall, the supernatants containing the peptides were transferred into new PCR tubes (of tube strips) and were stored at −80 °C. The beads were discarded.
(§6) Half of the peptide samples (11 µL containing about 2.5 µg peptides) were transferred into new PCR tubes (of tube strips) and allowed to equilibrate to r.t. TMT labeling reagents were reconstituted as described for the TPP-TR samples, and 1 µL each was added to the reconstituted peptides according to the following scheme and homogenized immediately by aspiration and dispensing:
(§7) Peptide separation was performed as described above for the analysis of TPP-TR samples. […]

[2] = target: T2, ENDOG (Homo sapiens, UniProt Q14249); test: TPP-CCR in living HL-60 cells; type: cell-based
T2 construct: endogenous in cells; host or cells: HL-60 (ATCC CCL-240)
T2 sequence (Q14249 49-297): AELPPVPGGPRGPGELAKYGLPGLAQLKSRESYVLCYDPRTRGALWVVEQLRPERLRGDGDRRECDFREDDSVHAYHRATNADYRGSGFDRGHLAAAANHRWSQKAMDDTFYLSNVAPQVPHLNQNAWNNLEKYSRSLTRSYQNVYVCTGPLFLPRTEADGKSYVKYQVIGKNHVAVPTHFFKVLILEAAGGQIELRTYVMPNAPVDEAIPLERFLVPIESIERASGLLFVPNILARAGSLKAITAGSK
Source text: as §1, §2, §3, §4, §5, §6, §7

[3] = living HL-60 cells, […] °C, TMT-MS

Cc1cnc(Nc2ccc(F)cc2Cl)nc1-c1c[nH]c(C(=O)N[C@H](CO)c2cccc(Cl)c2)c1 [ERK 11e]
Hill slope ([1]; TPP-CCR, living cells, NOP2): 0.29 | Hill slope (NOP2) [1, 3]: 0.29 | EC50 ([1]; living HL-60 cells, […] °C, TMT-MS, read-out: pEC50 (NOP2) (converted)): 105 nM | Hill slope ([2]; TPP-CCR, living cells, ENDOG): 0.40 | Hill slope (ENDOG) [2, 3]: 0.40 | EC50 ([2]; living HL-60 cells, […] °C, TMT-MS, read-out: pEC50 (ENDOG) (converted)): 2.75 nM
